# US20120172384A1, “HETEROCYCLYLAMINOPYRIMIDINES AS KINASE INHIBITORS” (priority 2009, published 2012)
# Biological target: T1, JAK3 (Homo sapiens, UniProt P52333)
# T1 construct: endogenous in cells
# T1 sequence (P52333 1-1124): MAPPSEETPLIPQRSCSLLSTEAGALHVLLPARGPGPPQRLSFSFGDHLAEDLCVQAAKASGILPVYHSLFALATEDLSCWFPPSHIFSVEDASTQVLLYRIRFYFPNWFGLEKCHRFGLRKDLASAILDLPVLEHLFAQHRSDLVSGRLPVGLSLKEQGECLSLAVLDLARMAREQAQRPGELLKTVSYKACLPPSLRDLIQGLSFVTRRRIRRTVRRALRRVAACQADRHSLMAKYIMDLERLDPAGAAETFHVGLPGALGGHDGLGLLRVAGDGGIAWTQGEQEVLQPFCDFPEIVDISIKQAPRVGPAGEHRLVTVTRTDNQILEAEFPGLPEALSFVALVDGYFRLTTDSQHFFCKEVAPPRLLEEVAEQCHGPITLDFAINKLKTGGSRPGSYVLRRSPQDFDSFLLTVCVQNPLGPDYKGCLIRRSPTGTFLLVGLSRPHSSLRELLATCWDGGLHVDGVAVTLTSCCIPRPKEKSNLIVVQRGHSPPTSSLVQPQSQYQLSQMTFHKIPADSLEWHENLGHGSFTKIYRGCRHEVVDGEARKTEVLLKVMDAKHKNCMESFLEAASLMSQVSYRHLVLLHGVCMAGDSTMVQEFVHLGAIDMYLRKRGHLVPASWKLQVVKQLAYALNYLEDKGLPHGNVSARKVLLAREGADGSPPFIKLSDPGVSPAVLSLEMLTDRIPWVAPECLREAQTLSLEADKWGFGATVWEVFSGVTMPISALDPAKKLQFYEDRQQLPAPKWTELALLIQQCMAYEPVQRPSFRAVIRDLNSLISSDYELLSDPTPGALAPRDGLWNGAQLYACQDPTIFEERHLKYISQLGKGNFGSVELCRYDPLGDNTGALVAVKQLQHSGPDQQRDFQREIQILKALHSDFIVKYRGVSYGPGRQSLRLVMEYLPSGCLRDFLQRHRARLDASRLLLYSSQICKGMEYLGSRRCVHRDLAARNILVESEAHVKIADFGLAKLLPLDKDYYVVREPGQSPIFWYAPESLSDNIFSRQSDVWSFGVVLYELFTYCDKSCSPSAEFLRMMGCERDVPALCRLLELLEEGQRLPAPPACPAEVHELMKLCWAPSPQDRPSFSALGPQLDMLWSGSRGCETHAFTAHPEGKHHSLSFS
# Experiment: JAK3 kinobeads assay
# Assay type: binding
# Details: cell lysate, dot blot with JAK3 specific antibody
# Procedure: The compounds of the present invention as described in the previous examples were tested in the ZAP-70 kinobeads assay as described (EP-A 1862802 and WO-A 2007/137867). Briefly, test compounds (at various concentrations) and the affinity matrix with the immobilized aminopyrido-pyrimidine ligand 24 are added to cell lysate aliquots and allowed to bind to the proteins in the lysate sample. After the incubation time the beads with captured proteins are separated from the lysate. Bound proteins are then eluted and the presence ZAP-70 is detected and quantified using a specific antibody in a dot blot procedure and the Odyssey infrared detection system.
# Compounds were tested by the procedure described in Example 102 but using a JAK3 specific antibody (Cell Signaling Technology, Inc., Danvers, US, catalogue number 3775) instead of a ZAP70 antibody.
row,Compound,IC50 [µM]
1,"Cc1cc(Nc2ncc(F)c(Nc3ccccc3NS(C)(=O)=O)n2)nn1CC(F)(F)F [Example 75, N-(2-((5-fluoro-2-((5-methyl-1-(2,2,2-trifluoroethyl)-1H-pyrazol-3-yl)amino)pyrimidin-4-yl)amino)phenyl)methanesulfonamide]",1 to 10
2,"COc1nn(CC(F)(F)F)cc1Nc1ncc(Cl)c(Nc2ccccc2NS(C)(=O)=O)n1 [Example 82, N-(2-((5-chloro-2-((3-methoxy-1-(2,2,2-trifluoroethyl)-1H-pyrazol-4-yl)amino)pyrimidin-4-yl)amino)phenyl)methanesulfonamide]",0.1 to 1
3,"COc1nn(CC(F)(F)F)cc1Nc1ncc(F)c(Nc2ccccc2NS(C)(=O)=O)n1 [Example 74, N-(2-((5-fluoro-2-((3-methoxy-1-(2,2,2-trifluoroethyl)-1H-pyrazol-4-yl)amino)pyrimidin-4-yl)amino)phenyl)methanesulfonamide]",1 to 10
4,"COc1ccc(Nc2nc(Nc3cc(C4CC4)nn3C)ncc2Cl)c(NS(C)(=O)=O)c1 [Example 9, N-(2-(5-chloro-2-(3-cyclopropyl-1-methyl-1H-pyrazol-5-ylamino)pyrimidin-4-ylamino)-5-methoxyphenyl)methanesulfonamide]",0.1 to 1
5,"CCCn1ccc(Nc2ncc(Cl)c(Nc3cccc(F)c3NS(C)(=O)=O)n2)n1 [Example 79, N-(2-((5-chloro-2-((1-propyl-1H-pyrazol-3-yl)amino)pyrimidin-4-yl)amino)-6-fluorophenyl)methanesulfonamide]",0.1 to 1
6,"Cc1cc(Nc2ncc(Cl)c(Nc3ccccc3NS(C)(=O)=O)n2)nn1CC(F)(F)F [Example 83, N-(2-((5-chloro-2-((5-methyl-1-(2,2,2-trifluoroethyl)-1H-pyrazol-3-yl)amino)pyrimidin-4-yl)amino)phenyl)methanesulfonamide]",0.1 to 1
7,"Cn1cc(Nc2ncc(Cl)c(Nc3cccc(F)c3NS(C)(=O)=O)n2)cn1 [Example 89, N-(2-((5-chloro-2-((1-methyl-1H-pyrazol-4-yl)amino)pyrimidin-4-yl)amino)-6-fluorophenyl)methanesulfonamide]",≤ 0.1
8,"COc1ccc(Nc2nc(Nc3ccn(C(C)C)n3)ncc2F)c(NS(C)(=O)=O)c1 [Example 48, N-(2-((5-fluoro-2-((1-isopropyl-1H-pyrazol-3-yl)amino)pyrimidin-4-yl)amino)-5-methoxyphenyl)methanesulfonamide]",0.1 to 1

# Other lines, results leading:
row,IC50 [µM],Compound
1,≤ 0.1,"COCCn1cc(Nc2ncc(Cl)c(Nc3ccccc3NS(C)(=O)=O)n2)cn1 [Example 52, N-(2-((5-chloro-2-((1-(2-methoxyethyl)-1H-pyrazol-4-yl)amino)pyrimidin-4-yl)amino)phenyl)methanesulfonamide]"
2,≤ 0.1,"Cn1ccc(Nc2ncc(Cl)c(Nc3cccc(F)c3NS(C)(=O)=O)n2)n1 [Example 70, N-(2-((5-chloro-2-((1-methyl-1H-pyrazol-3-yl)amino)pyrimidin-4-yl)amino)-6-fluorophenyl)methanesulfonamide]"
3,≤ 0.1,"CCCn1ccc(Nc2ncc(Cl)c(Nc3ccccc3NS(C)(=O)=O)n2)n1 [Example 46, N-(2-((5-chloro-2-((1-propyl-1H-pyrazol-3-yl)amino)pyrimidin-4-yl)amino)phenyl)methanesulfonamide]"
4,≤ 0.1,"COc1nn(CC(F)F)cc1Nc1ncc(Cl)c(Nc2ccccc2NS(C)(=O)=O)n1 [Example 80, N-(2-((5-chloro-2-((1-(2,2-difluoroethyl)-3-methoxy-1H-pyrazol-4-yl)amino)pyrimidin-4-yl)amino)phenyl)methanesulfonamide]"
5,≤ 0.1,"Cc1cc(Nc2ncc(Br)c(Nc3ccccc3NS(C)(=O)=O)n2)nn1C [Example 51, N-(2-((5-bromo-2-((1,5-dimethyl-1H-pyrazol-3-yl)amino)pyrimidin-4-yl)amino)phenyl)methanesulfonamide]"
6,≤ 0.1,"CC(C)n1ccc(Nc2ncc(Br)c(Nc3ccccc3NS(C)(=O)=O)n2)n1 [Example 49, N-(2-((5-bromo-2-((1-isopropyl-1H-pyrazol-3-yl)amino)pyrimidin-4-yl)amino)phenyl)methanesulfonamide]"
